Source: patent US20250333702A1, “CELLS WITH INCREASED IMMUNO-REGULATORY PROPERTIES AND METHODS FOR THEIR USE AND MANUFACTURE” (The Children's Medical Center Corporation, priority 2015, published 2025)
Counter-ions that a name gives are not always drawn.

What was measured:
Assay type in all cases: cell-based
IDO-1 = IDO-1 mRNA level (RT-qPCR) in CD34+ cells after ex vivo treatment with agent; conditions: mRNA by RT-qPCR, normalized against untreated cells; human CD34+ cells, 24 hours at 37° C.
Method: (§1) Human CD34+ stem and progenitor cells isolated from mobilized peripheral blood from three donors were ex vivo treated in […]® (StemCell Technologies) for 24 hours at 37° C. with one or more exogenous agents. Following cell treatments, gross mRNA levels were normalized against gross mRNA levels from the untreated cells […]. Levels of PD-L1 or IDO-1 mRNA were quantified from PICOPURE® isolated mRNA (Life Technologies) using an Assay on Demand TAQMAN® RT-qPCR assay (Life Technologies).

[1] = tested on: Human CD34+ stem and progenitor cells; test: Viability of CD34+ cells after ex vivo treatment with agent; set-up: concentration or dose not given beside the values; conditions: human CD34+ cells from mobilized peripheral blood, 24 hours at 37° C. with agent
PD-L1 (CD274) = test: PD-L1 mRNA level (RT-qPCR) in CD34+ cells after ex vivo treatment with agent; conditions: mRNA by RT-qPCR, normalized against untreated cells; human CD34+ cells, 24 hours at 37° C.
Method: as §1

CN[C@@H]1[C@H](O[C@H]2[C@H](O[C@H]3[C@H](O)[C@@H](O)[C@H](NC(=N)N)[C@@H](O)[C@@H]3NC(=N)N)O[C@@H](C)[C@]2(O)CO)O[C@@H](CO)[C@H](O)[C@H]1O [Dihydrostreptomycin sulfate]
IDO-1 fold change (IDO-1): 6.19 fold | % Viability ([1]; Table 2): 84.5%

C=CC(N)CCC(=O)O (stereo not drawn) [Vigabatrin]
PD-L1 fold change (PD-L1 (CD274)): 16.76 fold | % Viability ([1]; Table 1): 67%

CCC(=O)O[C@]1(C(=O)CCl)[C@@H](C)C[C@H]2[C@@H]3CCC4=CC(=O)C=C[C@]4(C)[C@@]3(F)[C@@H](O)C[C@@]21C [Clobetasol propionate]
PD-L1 fold change (PD-L1 (CD274)): 9.27 fold | % Viability ([1]; Table 1): 83%

Nc1ccn([C@@H]2O[C@H](CO)[C@@H](O)C2(F)F)c(=O)n1 [Gemcitabine]
IDO-1 fold change (IDO-1): 30.13 fold | % Viability ([1]; Table 2): 81.4%

C[C@H]1C[C@H]2[C@@H]3CCC4=CC(=O)C=C[C@]4(C)[C@@]3(F)[C@@H](O)C[C@]2(C)[C@@]1(O)C(=O)CO [Betamethasone]
PD-L1 fold change (PD-L1 (CD274)): 4.16 fold | % Viability ([1]; Table 1): 86.8%

C[C@@H]1C[C@H]2[C@@H]3C[C@H](F)C4=CC(=O)C=C[C@]4(C)[C@@]3(Cl)[C@@H](O)C[C@]2(C)[C@H]1C(=O)COC(=O)C(C)(C)C [Clocortolone pivalate]
PD-L1 fold change (PD-L1 (CD274)): 8.64 fold | % Viability ([1]; Table 1): 84.9%

CC1(C)O[C@@H]2C[C@H]3[C@@H]4C[C@H](F)C5=CC(=O)C=C[C@]5(C)[C@@]4(F)[C@@H](O)C[C@]3(C)[C@]2(C(=O)CO)O1 [Fluocinolone acetonide]
PD-L1 fold change (PD-L1 (CD274)): 10.58 fold | % Viability ([1]; Table 1): 82.9%

CN(C)CCC=C1c2ccccc2C=Cc2ccccc21 [Cyclobenzaprine]
IDO-1 fold change (IDO-1): 4.65 fold | % Viability ([1]; Table 2): 72.7%

CNC(C)CCC=C(C)C.CNC(C)CCC=C(C)C.O=C(O)[C@@H](O)[C@H](O)[C@H](O)[C@@H](O)C(=O)O [Isometheptene mucate]
IDO-1 fold change (IDO-1): 6.98 fold | % Viability ([1]; Table 2): 83.7%

OCCN1CCN(CCCN2c3ccccc3Sc3ccc(C(F)(F)F)cc32)CC1 [Fluphenazine]
PD-L1 fold change (PD-L1 (CD274)): 7.58 fold | IDO-1 fold change (IDO-1): 14.19 fold | % Viability ([1]; Table 1): 86% | % Viability ([1]; Table 2): 86%

Cc1scc2c1N(C(=O)CN1CCN(C)CC1)c1ccccc1NC2=O [Telenzepine]
IDO-1 fold change (IDO-1): 4.82 fold | % Viability ([1]; Table 2): 88.9%

NC(=O)N/N=C/c1ccc([N+](=O)[O-])o1 [Nitro fural]
PD-L1 fold change (PD-L1 (CD274)): 10.28 fold | % Viability ([1]; Table 1): 87.2%

Nc1nc(F)nc2c1ncn2[C@@H]1O[C@H](CO)[C@@H](O)[C@@H]1O [Fludarabine]
IDO-1 fold change (IDO-1): 4.22 fold | % Viability ([1]; Table 2): 82.5%

Tyrphostin AG 835
PD-L1 fold change (PD-L1 (CD274)): 32.57 fold | % Viability ([1]; Table 1): 61.3%

N#Cc1ccc(C(c2ccc(C#N)cc2)n2cncn2)cc1 [Letrozole]
IDO-1 fold change (IDO-1): 4.38 fold | % Viability ([1]; Table 2): 81.3%

CNCCCC1c2ccccc2C=Cc2ccccc21 [Protriptyline]
IDO-1 fold change (IDO-1): 5.74 fold | % Viability ([1]; Table 2): 79.4%

Nc1ccc(C(=O)O)c(O)c1 [4-aminosalicylic acid]
IDO-1 fold change (IDO-1): 4.07 fold | % Viability ([1]; Table 2): 85.3%
